Reference: ChEMBL document CHEMBL5331106, “Investigation into the Mechanism of Action of the Tuberculosis Drug Candidate SQ109 and Its Metabolites and Analogues in Mycobacteria” (J Med Chem, 2023)

Key:
[1] = tested on: Mycolicibacterium smegmatis; assay: Rescue fold, ratio of IC50 for antimycobacterial activity against Mycobacterium smegmatis in presence of 50 uM undecaprenyl phosphate to IC50 for antimycobacterial activity against Mycobacterium smegmatis; assay type: functional
[2] = tested on: Mycolicibacterium smegmatis; assay: Antimycobacterial activity against Mycobacterium smegmatis assessed as inhibition of mycobacterial growth incubated for 48 hrs in presence of 50 uM menaquinone-4 and 50 uM undecaprenyl phosphate; assay type: functional, organism-based
[3] = tested on: Mycolicibacterium smegmatis; assay: Antimycobacterial activity against Mycobacterium smegmatis assessed as inhibition of mycobacterial growth incubated for 48 hrs in presence of 200 uM menaquinone-4; assay type: functional, organism-based
[4] = target: T1, Trehalose monomycolate exporter MmpL3 (Mycolicibacterium smegmatis, UniProt A0QP27); assay: Binding affinity to Mycobacterium smegmatis MmpL3 by surface plasmon resonance assay
T1 sequence (A0QP27 whole entry): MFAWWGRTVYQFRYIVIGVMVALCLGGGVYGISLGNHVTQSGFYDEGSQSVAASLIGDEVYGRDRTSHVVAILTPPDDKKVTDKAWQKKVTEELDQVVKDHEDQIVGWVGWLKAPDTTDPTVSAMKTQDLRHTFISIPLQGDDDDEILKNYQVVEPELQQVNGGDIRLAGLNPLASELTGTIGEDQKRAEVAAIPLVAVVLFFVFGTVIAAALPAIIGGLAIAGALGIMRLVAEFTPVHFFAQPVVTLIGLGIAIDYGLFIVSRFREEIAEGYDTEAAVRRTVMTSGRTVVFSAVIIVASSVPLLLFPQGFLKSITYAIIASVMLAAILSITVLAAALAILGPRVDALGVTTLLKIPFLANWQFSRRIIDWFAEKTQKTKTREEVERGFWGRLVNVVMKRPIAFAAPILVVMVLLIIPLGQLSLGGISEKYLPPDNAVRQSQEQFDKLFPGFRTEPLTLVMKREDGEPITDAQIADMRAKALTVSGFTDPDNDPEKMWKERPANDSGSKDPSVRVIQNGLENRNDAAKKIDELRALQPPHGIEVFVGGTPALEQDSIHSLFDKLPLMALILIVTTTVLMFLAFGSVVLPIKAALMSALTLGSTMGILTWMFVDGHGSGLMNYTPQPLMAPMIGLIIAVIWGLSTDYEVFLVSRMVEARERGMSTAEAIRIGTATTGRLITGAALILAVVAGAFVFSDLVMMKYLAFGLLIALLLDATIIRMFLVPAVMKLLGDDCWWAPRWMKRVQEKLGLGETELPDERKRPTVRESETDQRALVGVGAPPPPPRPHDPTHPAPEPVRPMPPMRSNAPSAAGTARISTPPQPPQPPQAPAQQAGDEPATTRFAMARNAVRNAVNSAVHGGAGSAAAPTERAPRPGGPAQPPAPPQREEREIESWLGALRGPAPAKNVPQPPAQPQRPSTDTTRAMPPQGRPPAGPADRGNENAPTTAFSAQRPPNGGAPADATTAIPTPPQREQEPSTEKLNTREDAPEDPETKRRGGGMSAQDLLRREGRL

[5] = Drug metabolism in Mycobacterium tuberculosis HN878 assessed as N1-(adamantan-1-yl)ethane-1,2-diamine metabolite formation at 10 uM incubated for 24 hrs by LC-MS analysis; assay type: ADME
[6] = tested on: Mycolicibacterium smegmatis; assay: Antimycobacterial activity against Mycobacterium smegmatis assessed as inhibition of mycobacterial growth incubated for 48 hrs in presence of 200 uM undecaprenyl phosphate; assay type: functional, organism-based
[7] = tested on: Mycolicibacterium smegmatis; assay: Antimycobacterial activity against Mycobacterium smegmatis assessed as inhibition of mycobacterial growth incubated for 48 hrs in presence of 25 uM undecaprenyl phosphate; assay type: functional, organism-based
[8] = tested on: Mycolicibacterium smegmatis; assay: Rescue fold, ratio of IC50 for antimycobacterial activity against Mycobacterium smegmatis in presence of 100 uM menaquinone-7 to IC50 for antimycobacterial activity against Mycobacterium smegmatis; assay type: functional
[9] = target: T1, Trehalose monomycolate exporter MmpL3; assay: Binding affinity to C-terminal 10XHis-tagged Mycobacterium smegmatis mc2 155 MmpL3 expressed in Mycobacterium smegmatis mc2 155 cells by microscale thermophoresis analysis
[10] = tested on: Mycolicibacterium smegmatis; assay: Antimycobacterial activity against Mycobacterium smegmatis assessed as inhibition of mycobacterial growth incubated for 48 hrs in presence of 50 uM Upp; assay type: functional, organism-based
[11] = tested on: Mycobacterium tuberculosis; assay: Antimycobacterial activity against Mycobacterium tuberculosis HN878 assessed as inhibition of mycobacterial growth incubated for 5 days in presence of 50 uM undecaprenyl phosphate; assay type: functional, organism-based; conditions: HN878, 120 h
[12] = tested on: Mycolicibacterium smegmatis; assay: Rescue fold, ratio of IC50 for antimycobacterial activity against Mycobacterium smegmatis in presence of 200 uM menaquinone-4 to IC50 for antimycobacterial activity against Mycobacterium smegmatis; assay type: functional
[13] = tested on: Mycolicibacterium smegmatis; assay: Antimycobacterial activity against Mycobacterium smegmatis assessed as inhibition of mycobacterial growth incubated for 48 hrs in presence of 25 uM menaquinone-4; assay type: functional, organism-based
[14] = tested on: Cell membrane; assay: Uncoupling activity in Escherichia coli inverted membrane vesicles assessed as collapse of pH gradient by measuring increase in ACMA fluorescence intensity by fluorometric analysis; assay type: subcellular
[15] = tested on: Mycobacterium tuberculosis; assay: Antimycobacterial activity against Mycobacterium tuberculosis HN878 assessed as inhibition of mycobacterial growth incubated for 5 days; assay type: functional, organism-based; conditions: HN878, 120 h
[16] = tested on: Mycolicibacterium smegmatis; assay: Antimycobacterial activity against Mycobacterium smegmatis assessed as inhibition of mycobacterial growth incubated for 48 hrs in presence of 100 uM menaquinone-7; assay type: functional, organism-based
[17] = tested on: Mycolicibacterium smegmatis; assay: Antimycobacterial activity against Mycobacterium smegmatis assessed as inhibition of mycobacterial growth incubated for 48 hrs in presence of 12.5 uM undecaprenyl phosphate; assay type: functional, organism-based
[18] = Inhibition of Plasmodium vivax geranylgeranyl diphosphate synthase
[19] = tested on: Mycolicibacterium smegmatis; assay: Antimycobacterial activity against Mycobacterium smegmatis assessed as inhibition of mycobacterial growth incubated for 48 hrs in presence of 100 uM undecaprenyl phosphate; assay type: functional, organism-based
[20] = target: T2, Decaprenyl diphosphate synthase (Mycobacterium tuberculosis, UniProt P9WFF7); assay: Inhibition of Mycobacterium tuberculosis cis-decaprenyl diphosphate synthase
T2 sequence (P9WFF7 whole entry): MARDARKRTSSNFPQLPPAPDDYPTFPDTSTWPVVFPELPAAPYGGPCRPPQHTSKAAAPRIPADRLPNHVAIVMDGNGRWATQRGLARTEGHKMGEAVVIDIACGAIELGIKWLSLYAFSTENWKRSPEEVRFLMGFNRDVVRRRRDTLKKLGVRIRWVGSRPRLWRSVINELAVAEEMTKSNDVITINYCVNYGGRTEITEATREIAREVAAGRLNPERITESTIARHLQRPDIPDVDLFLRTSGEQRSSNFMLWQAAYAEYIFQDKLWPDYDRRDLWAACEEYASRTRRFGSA

[21] = Inhibition of Staphylococcus aureus undecaprenyl diphosphate synthase
[22] = Inhibition of Staphylococcus aureus farnesyl diphosphate synthase
[23] = tested on: Mycolicibacterium smegmatis; assay: Antimycobacterial activity against Mycobacterium smegmatis assessed as inhibition of mycobacterial growth incubated for 48 hrs; assay type: functional, organism-based
[24] = Inhibition of Escherichia coli undecaprenyl diphosphate synthase
[25] = tested on: Mycolicibacterium smegmatis; assay: Antimycobacterial activity against Mycobacterium smegmatis assessed as inhibition of mycobacterial growth incubated for 48 hrs in presence of 50 uM menaquinone-7; assay type: functional, organism-based
[26] = target: T3, (2Z,6E)-farnesyl diphosphate synthase (Mycobacterium tuberculosis, UniProt P9WFF5); assay: Inhibition of Mycobacterium tuberculosis cis-farnesyl diphosphate synthase
T3 sequence (P9WFF5 whole entry): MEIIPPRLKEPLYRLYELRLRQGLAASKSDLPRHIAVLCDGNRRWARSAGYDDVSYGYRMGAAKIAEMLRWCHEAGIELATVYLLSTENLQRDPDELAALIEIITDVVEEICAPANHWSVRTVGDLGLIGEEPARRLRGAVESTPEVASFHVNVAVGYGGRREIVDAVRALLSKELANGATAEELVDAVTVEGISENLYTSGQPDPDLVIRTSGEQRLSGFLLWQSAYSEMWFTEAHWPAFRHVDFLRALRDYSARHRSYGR

[27] = Inhibition of Staphylococcus aureus dehydrosqualene synthase
[28] = tested on: Mycolicibacterium smegmatis; assay: Antimycobacterial activity against Mycobacterium smegmatis assessed as inhibition of mycobacterial growth incubated for 48 hrs in presence of 50 uM menaquinone-4; assay type: functional, organism-based
[29] = tested on: Mycolicibacterium smegmatis; assay: Antimycobacterial activity against Mycobacterium smegmatis assessed as inhibition of mycobacterial growth incubated for 48 hrs in presence of 50 uM undecaprenyl phosphate; assay type: functional, organism-based
[30] = target: T4, Undecaprenyl-diphosphatase (Escherichia coli (strain K12), UniProt P60932); assay: Inhibition of UppP in Escherichia coli using FPP as substrate pretreated for 20 mins followed by FPP addition and measured after 60 mins by malachite green based assay
T4 sequence (P60932 whole entry): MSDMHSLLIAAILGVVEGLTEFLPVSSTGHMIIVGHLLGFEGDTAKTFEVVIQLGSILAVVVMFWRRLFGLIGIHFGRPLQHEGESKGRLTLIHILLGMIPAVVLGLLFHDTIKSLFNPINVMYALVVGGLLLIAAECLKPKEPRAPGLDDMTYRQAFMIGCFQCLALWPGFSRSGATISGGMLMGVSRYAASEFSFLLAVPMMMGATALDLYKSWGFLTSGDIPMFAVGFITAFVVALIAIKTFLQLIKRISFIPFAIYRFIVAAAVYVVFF

For CC(C)=CCC/C(C)=C/CNCCNC1C2CC3CC(C2)CC1C3 (stereo not given) [SQ109], the “Ratio IC50” value [1] was 6.4, the IC50 [2] was 16 µM and the IC50 [3] was 4.8 µM. For the same molecule, the Kd [4] was 400 µM, the Drug metabolism [5] was “Metabolite_Notdetected” and the IC50 [6] was 14 µM. For the same molecule, the IC50 [7] was 8.9 µM, the “Ratio IC50” value [8] was 3 and the Kd [9] was 1.6 µM. For the same molecule, the IC50 [10] was 1.4 µM, the IC50 [11] was 6.1 µM and the “Ratio IC50” value [12] was 2. For the same molecule, the IC50 [13] was 2.1 µM, the IC50 [14] was 2.3 µM and the IC50 [15] was 0.41 µM. For the same molecule, the IC50 [16] was 6.5 µM, the IC50 [17] was 3.7 µM and the IC50 [18] was ≥ 50 µM. The IC50 [19] was 14 µM, the IC50 [20] was ≥ 50 µM and the IC50 [21] was ≥ 50 µM. For the same molecule, the IC50 [22] was ≥ 50 µM, the IC50 [23] was 1.5 µM and the IC50 [24] was ≥ 50 µM. For the same molecule, the IC50 [25] was 4.2 µM, the IC50 [26] was ≥ 50 µM and the IC50 [27] was ≥ 50 µM. For the same molecule, the IC50 [28] was 2.9 µM, the IC50 [29] was 16 µM and the IC50 [30] was 32 µM.
